The values that follow come from patent US4670460A, “Inhibiting lipoxygenase with pyrazolone derivatives” (Bayer Aktiengesellschaft, priority 1983, dated 1987).

Broadly, the inhibition is how much of the control response was suppressed.

The nature of assay [1]: Antithrombotic action (prophylaxis of thromboses). Particulars: dose increased 100 times in comparison with nafazatrom. It counts as in vivo.
In assay [2] the target is T1, lipoxygenase (Homo sapiens, UniProt P09917).
T1 construct: endogenous in cells; host or cells: human PMN leucocytes isolated from heparinized blood
T1 sequence (P09917 1-674): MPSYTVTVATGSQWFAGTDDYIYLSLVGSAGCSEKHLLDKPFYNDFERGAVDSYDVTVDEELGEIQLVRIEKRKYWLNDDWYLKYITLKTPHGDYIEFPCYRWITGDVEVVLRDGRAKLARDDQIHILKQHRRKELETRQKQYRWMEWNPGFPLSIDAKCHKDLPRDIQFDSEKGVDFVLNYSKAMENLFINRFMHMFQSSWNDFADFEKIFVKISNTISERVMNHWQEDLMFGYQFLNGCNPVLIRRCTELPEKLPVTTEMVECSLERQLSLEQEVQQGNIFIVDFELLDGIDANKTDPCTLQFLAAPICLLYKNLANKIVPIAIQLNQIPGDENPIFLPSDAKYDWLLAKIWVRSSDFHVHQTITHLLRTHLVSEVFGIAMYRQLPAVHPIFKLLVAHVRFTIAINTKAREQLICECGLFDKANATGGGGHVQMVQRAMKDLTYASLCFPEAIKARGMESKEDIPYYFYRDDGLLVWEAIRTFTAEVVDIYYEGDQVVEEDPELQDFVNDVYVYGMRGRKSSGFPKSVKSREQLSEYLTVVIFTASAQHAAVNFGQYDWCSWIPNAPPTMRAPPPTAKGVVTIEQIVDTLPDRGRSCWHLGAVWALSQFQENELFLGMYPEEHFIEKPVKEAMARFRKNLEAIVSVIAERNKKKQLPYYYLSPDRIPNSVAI
The experiment in a line: Inhibition of LTB4 biosynthesis (lipoxygenase-inhibiting action) in human PMN leucocytes stimulated with ionophor A 23187. It counts as cell-based. Conditions: 0.25 h; for inhibition at 10 µg/mL: concentration 10^-5 g/ml; for inhibition at 1 µg/mL: concentration 10^-6 g/ml. As to the method: The human PMN leucocytes (>95%) used in the present example were obtained from heparinized complete blood by dextran sedimentation and subsequent density gradient separation (Ficoll-Paque) (compare A. Boyum, Scand. J. Immunol., 5, Suppl. 5, 9, 1976).
2×10^7 cells/ml were suspended in Dulbecco phosphate buffer containing Ca^2+ and were incubated with radioactively labelled arachidonic acid and the calcium ionophor A 23187 in the presence or absence of lipoxygenase inhibitor. After 15 minutes, the labelled lipoxygenase products were extracted from the acidified incubation medium and were separated by thin layer chromatography using a mobile phase mixture suitable for the leukotrienes (5-HETE-LTB4) (compare B. Jakschik et al., Biochem. Biophys. Res. Commun., 102, 624, 1981).
The distribution of the activity amongst the various metabolites was measured by a thin layer scanner. It is a measure of the lipoxygenase-inhibiting action of a test substance at a certain concentration.
The lipoxygenase metabolites were also additionally determined independently by means of high pressure liquid chromatography. This method enables the endogenous arachidonic acid metabolism to be studied with the aid of UV detection of the leukotrienes. In this method, the cells were treated as described above, with the exception that no radioactively labelled arachidonic acid was added exogenously. The high pressure liquid chromatography was carried out on Lichrosorb RP-18 (5 μm) columns. The mobile phase was methanol/water/glacial acetic acid 69/31/0.01. The flow rate was 1 ml/minute. Leukotriene B4 was determined at 280 nm and the HETE derivatives were determined at 232 nm, in each case by means of UV absorption.

Assay [3] has as its system lipoxygenase. Conditions: Busse et al. 1982; cited from earlier work.
Assay [4] deals with endogenous prostacyclin (PGI2) from the vascular endothelium. Particulars: Vermylen 1979, Chamone 1981, McIntyre and Salzman 1981; cited from earlier work.
Assay [5] concerns 15-hydroxyprostaglandin dehydrogenase. Particulars: Wong and McGiff 1982; cited from earlier work.
The next assay has as its system leucocytes. Nature of the assay: Leucocyte stickiness, hamster cheek pouch venule. In kind it is in vivo, Syrian golden hamsters. As to the method: The number of leucocytes which pass a certain section of a vessel serves as a simple model for measuring the stickiness of leucocytes (Bray, M. A. et al., Prostaglandins 22, 213 (1981)). The number of leucocytes counted will be greater, the lower the stickiness of the cells.
The pyrazolone derivatives described below were investigated in this model.
Male Syrian golden hamsters (80-100 g) were anaesthetized with Nembutal (i.p.; 60 mg/kg). After insertion of a PE 10 catheter into the a. femoralis, the animal was laid on a Duling dissecting platform (MVR 5, 423 (1973)) and the right cheek pouch was withdrawn by inserting a Q-Tip. It was carefully drawn into the envisaged part of the platform, stretched and fixed.
From the start of the dissection, 5 ml/minute of Superfusat flowedover the prepared cheek pouch. The temperature of the solution was 36° C. While treating the vessels with care, the upper layer tissue was separated longitudinally and folded back to the side. Under about 200-fold magnification, an area of about 1 cm^2 of connective tissue was carefully exposed. The animal was placed on the object stand of a microscope, together with the dissecting platform. A thermocouple was inserted into the left cheek pouch. The body temperature of the animal was thus monitored and kept at 36±0.3° C. with the aid of an IR lamp (250 watt).
The leucocyte stickiness was measured at about 500-fold magnification. A venule (30-40 μm .phi.) was selected in the exposed area. The number of leucocytes per unit time (minutes) which migrate past a certain section of this vessel were counted.
Intra-arterial administration of the pyrazolone derivatives in 1% strength aqueous Tylose suspension led to the following results: […]

On to `CC1=NN(CCOc2ccc3ccccc3c2)C(=O)C1C` (stereo not drawn) [3,4-dimethyl derivative], for which the “Effect in the prophylaxis of thromboses” value in assay [1] is “no effect can be detected”.

Take `COCC1=NN(CCOc2ccc3ccccc3c2)C(=O)C1`: on lipoxygenase [2], testing at 10 µg/mL gave an inhibition of 93% and testing at 1 µg/mL gave an inhibition of 40%.

For `CC1=NN(CCOc2ccc3ccccc3c2)C(=O)C1` [nafazatrom, 3-methyl-1-[2-(2-naphthyloxy)-ethyl]-2-pyrazolin-5-one], in the assay with lipoxygenase [3], the “Inhibition of lipoxygenase activity” value was “inhibits lipoxygenase activity”. The “Stimulation of endogenous prostacyclin (PGI2) from the vascular endothelium” value in assay [4] is listed as “can act as a stimulator”. The “Blockade of 15-hydroxyprostaglandin dehydrogenase, the PGI2-degrading enzyme” value in assay [5] is “blocks”.

As for `CC1=NN(CCOc2ccc3ccccc3c2)C(=O)C1C1C(=O)N(CCOc2ccc3ccccc3c2)N=C1C` (stereo not drawn), at lipoxygenase [2], the inhibition at 10 µg/mL amounted to 50%.

Consider `CC1=NN(CCOc2ccccc2-c2ccccc2)C(=O)C1` [Compound 4], for which, in the assay with leucocytes (dose 0.1 mg/kg intra-arterial), the “Duration of action” value is 40 min and the “Increase in Leucocyte number (%)” value is reported as 35%.

`CC1=NN(CCc2cccc3ccccc23)C(=O)C1` [Compound 6]: in the assay on leucocytes (dose 1 mg/kg intra-arterial), the “Duration of action” value fell in the range of 20 to 30 min and the “Increase in Leucocyte number (%)” value came out at 30%.

`O=C1CC(Cc2ccccc2)=NN1CCOc1ccc2ccccc2c1` [Compound 3-benzyl]: the “Effect in the prophylaxis of thromboses” value in assay [1] is given as “no effect can be detected”.

For the compound `O=C1CC(CO)=NN1CCOc1ccc2ccccc2c1`, at 10 µg/mL the inhibition at lipoxygenase [2] was 80%.

On lipoxygenase [2], `CC1=NN(CCOc2ccc3ccccc3c2)C(=O)C1C` (stereo not drawn) [drawing 22] displayed an inhibition at 10 µg/mL of 100% and an inhibition at 1 µg/mL of 83%.

`CC(C)C1=NN(CCOc2ccc3ccccc3c2)C(=O)C1` [Compound 3-isopropyl]: the “Effect in the prophylaxis of thromboses” value in assay [1] was “no effect can be detected”.

For `CC1=NN(CCOc2cccc3ccccc23)C(=O)C1`, on lipoxygenase [2], 10 µg/mL produced 100% inhibition and at 1 µg/mL the inhibition was 62%.

At lipoxygenase [2], `CCC1C(=O)N(CCOc2ccc3c(Br)cccc3c2)N=C1C` (stereo not drawn) [drawing 20] showed an inhibition at 10 µg/mL of 100% and an inhibition at 1 µg/mL of 100%.

As to `CCC1C(=O)N(CCOc2ccc3c(Br)cccc3c2)N=C1C` (stereo not drawn) [Compound 5], in the assay with leucocytes (dose 1 mg/kg intra-arterial), the “Duration of action” value fell in the range of 30 to 50 min and the “Increase in Leucocyte number (%)” value is on record as 200%.

For `CC1=NN(CCOc2ccccc2-c2ccccc2)C(=O)C1` [drawing 18], on lipoxygenase [2], 10 µg/mL produced 100% inhibition and at 1 µg/mL the inhibition was 75%.

On lipoxygenase [2], `CC1=NN(CCOc2ccc3ccccc3c2)C(=O)C1` [drawing 34, reference compound] returned an inhibition at 10 µg/mL of 100% and an inhibition at 1 µg/mL of 58%.

For `Cc1cc(OC(=O)c2ccc(Cl)cc2)n(C(C)c2ccc(Cl)c(Cl)c2)n1` (stereo not drawn), 10 µg/mL produced 80% inhibition against lipoxygenase [2].

Regarding `CC1=NN(C(C)c2ccc(Cl)c(Cl)c2)C(=O)C1Cc1ccccc1` (stereo not drawn), testing at 10 µg/mL on lipoxygenase [2] gave an inhibition of 100%.

On to `CCCCCCC1C(=O)N(CCOc2ccc3ccccc3c2)N=C1C` (stereo not drawn), for which, on lipoxygenase [2], the inhibition at 10 µg/mL is 100% and the inhibition at 1 µg/mL was 93%.

Consider `O=C1CC(C2CCCCC2)=NN1CCCc1ccccc1`, for which, on lipoxygenase [2], the inhibition at 10 µg/mL turned out to be 100% and at 1 µg/mL the inhibition was 71%.

The compound `Cc1cc(OC(=O)c2ccc3ccccc3c2)n(C(C)c2ccc(Cl)c(Cl)c2)n1` (stereo not drawn) had an inhibition at 10 µg/mL against lipoxygenase [2] of 46%.

At lipoxygenase [2], `CC1=NN(CCOc2ccc(Cl)c(C)c2)C(=O)C1` showed an inhibition at 10 µg/mL of 100% and an inhibition at 1 µg/mL of 43%.

On lipoxygenase [2], `CC(=O)OCC1=NN(CCOc2ccc3ccccc3c2)C(=O)C1` displayed an inhibition at 10 µg/mL of 82% and an inhibition at 1 µg/mL of 36%.

At lipoxygenase [2], `CCC1=NN(CCOc2ccc3c(Br)cccc3c2)C(=O)C1C` (stereo not drawn) showed an inhibition at 10 µg/mL of 100% and an inhibition at 1 µg/mL of 100%.

On lipoxygenase [2], `CCCCC1C(=O)N(CCOc2ccc3c(Br)cccc3c2)N=C1C` (stereo not drawn) displayed an inhibition at 10 µg/mL of 100% and an inhibition at 1 µg/mL of 68%.

Take `O=C1CC(c2ccccc2)=NN1CCCc1ccccc1`: at lipoxygenase [2], at 10 µg/mL the inhibition was 100% and at 1 µg/mL the inhibition was 81%.

On lipoxygenase [2], `CC1=NN(CCc2cccc3ccccc23)C(=O)C1` [drawing 28] showed an inhibition at 10 µg/mL of 100% and an inhibition at 1 µg/mL of 58%.

Regarding `CCCC1=NN(CCOc2ccc3ccccc3c2)C(=O)C1` [Compound 3-n-propyl], the “Effect in the prophylaxis of thromboses” value in assay [1] is reported as “no effect can be detected”.

On lipoxygenase [2], `CC(C)CC1=NN(CCOc2ccc3ccccc3c2)C(=O)C1` yielded an inhibition at 10 µg/mL of 100% and an inhibition at 1 µg/mL of 100%.
